pIC50: −log10 of the molar value.
System: KRAS G12V dependent lung adenocarcinoma cell line, NCI-H441
Experiment: Cellular pERK (Thr202/Tyr204) FRET/HTRF assay
Assay type: cell-based
Description: “Ras” refers to a protein in the Ras superfamily of small GTPases, such as in the Ras subfamily. […] The Ras proteins play a critical role in the regulation of cell behaviors, including proliferation, differentiation, and survival. […] KRAS G12V, G12D, and G12S variants are common in human cancers and Ras inhibitors binding in or near the Switch II pocket may provide mutant binding selectivity. RAS mutations are known to be often associated with pancreatic, colorectal and non-small-cell lung carcinomas (Lone, A. M. et al. J. Am. Chem. Soc. 2011,133, 11665-74, which is entirely incorporated herein by reference; Dillon, M. B.; Bachovchin, D. A.; Brown, S. J.; Finn, M. G.; Rosen, H.; Cravatt, B. F.; Mowen, K. A. ACS Chem. Biol. 2012, 7, 1198-204, which is entirely incorporated herein by reference; Bachovchin, D. A.; Brown, S. J.; Rosen, H.; Cravatt, B. F. Nat. Biotechnol. 2009, 27, 387-94, Ostrem, J. M.; Peters, U.; Sos, M. L.; Wells, J. A.; Shokat, K. M. Nature 2013, 503, 548-551. Ryan M. B. and Corcoran R. B, Nat. Rev Clin Onco. 2018, 11, 709-720.). Ras proteins are key members in the Ras/Raf/Mitogen-activated protein kinase (MAPK) signaling pathway. This pathway regulates a wide variety of cellular processes, including proliferation, differentiation, apoptosis, and stress responses. One way to measure the impact of an inhibitor of Ras proteins is to measure downstream phosphorylation of proteins in the MAPK pathway. The MAPK pathway includes extracellular signal-regulated kinases named ERK1 and ERK2, which are serine-threonine kinases that regulate cellular signaling under both normal and oncogenic conditions. ERK expression and hyperactivation via phosphorylation plays a major role in cancer progression and are downstream of Ras proteins. The assay used for measuring the downstream impact of Ras inhibition is the use of a highly sensitive cell-based readout of ERK phosphorylation (pERK) specifically on Threonine (Thr) 202 and Tyrosine (Tyr) 204 in a KRAS G12V dependent lung adenocarcinoma cell line, NCI-H441 (ATCC Cat #HTB-174). The assay described herein is suitable for assessing inhibition of Ras and can be tailored for any of the predominant oncogenic mutations in any isoform of Ras (e.g., KRAS, HRAS, and NRAS) by changing the cell line.
pERK was measured using an advanced pERK assay designed for the robust and highly sensitive quantification of ERK phosphorylation on Thr202/Tyr204. This assay is intended for the simple, rapid, and direct detection of endogenous levels of ERK1/2 in cells, but only when ERK is phosphorylated at Thr202 and Tyr204 (Perkin Elmer Catalog #64AERPEH). pERK was detected in a FRET based sandwich assay format using 2 different specific antibodies, one labelled with Eu3+-Cryptate (donor) and the second with d2 (acceptor). When the dyes are in close proximity, the excitation of the donor with a light source (laser or flash lamp) triggers a Fluorescence Resonance Energy Transfer (FRET) towards the acceptor, which in turn fluoresces at a specific wavelength (665 nm). The specific signal modulates positively in proportion to p-ERK1/2 (Thr202/Tyr204). The simple mix-and-read protocol eliminates all wash steps for faster analysis and high-quality output. Briefly, cells were diluted to the desired concentration per well based on a growth curve showing ˜75% confluence within a 24-hour time period at no less than 95% viability. Cell suspension (24 μL) were added into each well of 384-well culture plate and maintained in 37° C. 5% CO2 incubator overnight prior to assay. All compounds were transferred to stock plates using TECAN (EVO200) liquid handler using DMSO as the solubilizing and dilution agent. Test compounds were transferred onto adherent cells using an Echo655 liquid handler. DMSO was employed as negative control. Cells were incubated with test compounds for 1 hr in a 37° C., 5% CO2 incubator following compound addition. […]

[1] = cellular pERK (Thr202/Tyr204) HTRF, NCI-H441 cells
[2] = cellular pERK HTRF, NCI-H441 (KRAS G12V) cells

pIC50 [1] | Structure (SMILES) | also measured
6.30 to 7.30 | [2H]C([2H])(Oc1nc(N2CCOC[C@@H]3[C@@H](Cl)[C@@H]32)c2cc(C(F)(F)F)c(-c3ccc(F)c4sc(N)c(C#N)c34)c(F)c2n1)[C@@]12CCCN1C[C@H](F)C2 (atropisomer, axis not shown; (aS)) [Example 419, 2-amino-4-((S)-4-((1R,7R,8R)-8-chloro-5-oxa-2-azabicyclo[5.1.0]octan-2-yl)-8-fluoro-2-(((2R,7aS)-2-fluorotetrahydro-1H-pyrrolizin-7a(5H)-yl)methoxy-d2)-6-(trifluoromethyl)quinazolin-7-yl)-7-fluorobenzo[b]thiophene-3-carbonitrile] | –
> 7.30 | [2H]C([2H])(Oc1nc(N2CCOC[C@H]3[C@H](Cl)[C@H]32)c2cc(C(F)(F)F)c(-c3ccc(F)c4sc(N)c(C#N)c34)c(F)c2n1)[C@@]12CCCN1C[C@H](F)C2 (atropisomer, axis not shown; (aS)) [Example 420, 2-amino-4-((S)-4-((1S,7S,8S)-8-chloro-5-oxa-2-azabicyclo[5.1.0]octan-2-yl)-8-fluoro-2-(((2R,7aS)-2-fluorotetrahydro-1H-pyrrolizin-7a(5H)-yl)methoxy-d2)-6-(trifluoromethyl)quinazolin-7-yl)-7-fluorobenzo[b]thiophene-3-carbonitrile] | –
5.00 to 6.30 | [2H]C([2H])(Oc1nc(N2CCOC[C@@H]3[C@@H](Cl)[C@@H]32)c2cc(C(F)(F)F)c(-c3ccc(F)c4sc(N)c(C#N)c34)c(F)c2n1)[C@@]12CCCN1C[C@H](F)C2 (atropisomer, axis not shown; (aS)) [Example 421, 2-amino-4-((R)-4-((1R,7R,8R)-8-chloro-5-oxa-2-azabicyclo[5.1.0]octan-2-yl)-8-fluoro-2-(((2R,7aS)-2-fluorotetrahydro-1H-pyrrolizin-7a(5H)-yl)methoxy-d2)-6-(trifluoromethyl)quinazolin-7-yl)-7-fluorobenzo[b]thiophene-3-carbonitrile] | –

Further lines, the compound ahead of its results:

Structure (SMILES) | pIC50 [1] | also measured
[2H]C([2H])(Oc1nc(N2CCOC[C@H]3[C@H](F)[C@H]32)c2cc(Cl)c(-c3cc(N)cc4ccc(F)c(C#C)c34)c(F)c2n1)[C@@]12CCCN1C[C@H](F)C2 (atropisomer, axis not shown; (aS)) [Example 361, 4-((S)-6-chloro-8-fluoro-4-((1S,7S,8S)-8-fluoro-5-oxa-2-azabicyclo[5.1.0]octan-2-yl)-2-(((2R,7aS)-2-fluorotetrahydro-1H-pyrrolizin-7a(5H)-yl)methoxy-d2)quinazolin-7-yl)-5-ethynyl-6-fluoronaphthalen-2-amine] | 5.00 to 6.30 | –
[2H]C([2H])(Oc1nc(N2CCOC[C@H]3[C@H](F)[C@H]32)c2cc(C(F)(F)F)c(-c3ccc(F)c4sc(N)c(C#N)c34)c(F)c2n1)[C@@]12CCCN1C[C@H](F)C2 (atropisomer, axis not shown; (aS)) [Example 365, 2-amino-7-fluoro-4-((S)-8-fluoro-4-((1S,7S,8S)-8-fluoro-5-oxa-2-azabicyclo[5.1.0]octan-2-yl)-2-(((2R,7aS)-2-fluorotetrahydro-1H-pyrrolizin-7a(5H)-yl)methoxy-d2)-6-(trifluoromethyl)quinazolin-7-yl)benzo[b]thiophene-3-carbonitrile] | – | pIC50 (Homo sapiens, NCI-H441, cellular pERK (Thr202/Tyr204) HTRF, NCI-H441 cells): > 7.30
[2H]C([2H])(Oc1nc(N2CCOC[C@H]3[C@H](F)[C@H]32)c2cc(C(F)(F)F)c(-c3ccc(F)c4sc(N)c(C#N)c34)c(F)c2n1)[C@@]12CCCN1C[C@H](F)C2 (atropisomer, axis not shown; (aS)) [Example 390, 2-amino-7-fluoro-4-((R)-8-fluoro-4-((1S,7S,8S)-8-fluoro-5-oxa-2-azabicyclo[5.1.0]octan-2-yl)-2-(((2R,7aS)-2-fluorotetrahydro-1H-pyrrolizin-7a(5H)-yl)methoxy-d2)-6-(trifluoromethyl)quinazolin-7-yl)benzo[b]thiophene-3-carbonitrile] | > 7.30 | –
[2H]C([2H])(Oc1nc(N2CCOC[C@H]3[C@H](F)[C@H]32)c2cc(F)c(-c3cc(N)cc4ccc(F)c(C#C)c34)c(F)c2n1)[C@@]12CCCN1C[C@H](F)C2 (atropisomer, axis not shown; (aS)) [Example 391, 4-((R)-6,8-difluoro-4-((1S,7S,8S)-8-fluoro-5-oxa-2-azabicyclo[5.1.0]octan-2-yl)-2-(((2R,7aS)-2-fluorotetrahydro-1H-pyrrolizin-7a(5H)-yl)methoxy-d2)quinazolin-7-yl)-5-ethynyl-6-fluoronaphthalen-2-amine] | > 7.30 | –
[2H]C([2H])(Oc1nc(N2CCOC[C@H]3[C@H](F)[C@H]32)c2cc(F)c(-c3cc(N)cc4ccc(F)c(C#C)c34)c(F)c2n1)[C@@]12CCCN1C[C@H](F)C2 (atropisomer, axis not shown; (aS)) [Example 400, 4-((S)-6,8-difluoro-4-((1S,7S,8S)-8-fluoro-5-oxa-2-azabicyclo[5.1.0]octan-2-yl)-2-(((2R,7aS)-2-fluorotetrahydro-1H-pyrrolizin-7a(5H)-yl)methoxy-d2)quinazolin-7-yl)-5-ethynyl-6-fluoronaphthalen-2-amine] | 5.00 to 6.30 | –
[2H]C([2H])(Oc1nc(N2CCOC[C@H]3[C@H](Cl)[C@H]32)c2cc(C(F)(F)F)c(-c3ccc(F)c4sc(N)c(C#N)c34)c(F)c2n1)[C@@]12CCCN1C[C@H](F)C2 (atropisomer, axis not shown; (aS)) [Example 418, 2-amino-4-((R)-4-((1S,7S,8S)-8-chloro-5-oxa-2-azabicyclo[5.1.0]octan-2-yl)-8-fluoro-2-(((2R,7aS)-2-fluorotetrahydro-1H-pyrrolizin-7a(5H)-yl)methoxy-d2)-6-(trifluoromethyl)quinazolin-7-yl)-7-fluorobenzo[b]thiophene-3-carbonitrile] | 5.00 to 6.30 | –
[2H]C([2H])(Oc1nc(N2CCOC[C@H]3[C@H](F)[C@H]32)c2cc(F)c(-c3cc(N)cc4ccc(F)c(C#C)c34)c(C)c2n1)[C@@]12CCCN1C[C@H](F)C2 (atropisomer, axis not shown; (aS)) [Example 434, 5-Ethynyl-6-fluoro-4-((R)-6-fluoro-4-((1S,7S,8S)-8-fluoro-5-oxa-2-azabicyclo[5.1.0]octan-2-yl)-2-(((2R,7aS)-2-fluorotetrahydro-1H-pyrrolizin-7a(5H)-yl)methoxy-d2)-8-methylquinazolin-7-yl)naphthalen-2-amine] | – | pIC50 [2]: 5.00 to 6.30
[2H]C([2H])(Oc1nc(N2CCOC[C@H]3[C@H](F)[C@H]32)c2cc(F)c(-c3cc(N)cc4ccc(F)c(C#C)c34)c(C)c2n1)[C@@]12CCCN1C[C@H](F)C2 (atropisomer, axis not shown; (aS)) [Example 435, 5-ethynyl-6-fluoro-4-((S)-6-fluoro-4-((1S,7S,8S)-8-fluoro-5-oxa-2-azabicyclo[5.1.0]octan-2-yl)-2-(((2R,7aS)-2-fluorotetrahydro-1H-pyrrolizin-7a(5H)-yl)methoxy-d2)-8-methylquinazolin-7-yl)naphthalen-2-amine] | – | pIC50 [2]: > 7.30
[2H]C([2H])(Oc1nc(N2CCOC[C@H]3[C@H](F)[C@H]32)c2cc(C#N)c(-c3ccc(F)c4sc(N)c(C#N)c34)c(C)c2n1)[C@@]12CCCN1C[C@H](F)C2 (atropisomer, axis not shown; (aS)) [Example 440, (R)-7-(2-amino-3-cyano-7-fluorobenzo[b]thiophen-4-yl)-4-((1S,7S,8S)-8-fluoro-5-oxa-2-azabicyclo[5.1.0]octan-2-yl)-2-(((2R,7aS)-2-fluorotetrahydro-1H-pyrrolizin-7a(5H)-yl)methoxy-d2)-8-methylquinazoline-6-carbonitrile] | – | pIC50 [2]: > 7.30
